Data from ChEMBL document CHEMBL3046891, “Potent antimalarial activity of newly synthesized substituted chalcone analogs in vitro” (Med Chem Res, 2009).
In brackets after ≈: the same amount, converted by molar mass.

These molecules were tested on Plasmodium falciparum (assay: Antimalarial activity against blood-stage Plasmodium falciparum 3D7 after 48 hr by Giemsa staining method). Conditions: 3D7, 48 h.
Format: functional, organism-based

| SMILES | IC50 |
| --- | --- |
| COc1cc(/C=C/C(=O)c2ccc(-n3ccnc3)cc2)cc(OC)c1OC | 2.48 µg/mL (≈ 6.81 µM) |
| COc1cc(/C=C/C(=O)c2ccc(N3CCCC3)cc2)cc(OC)c1OC | 13 µg/mL (≈ 35.4 µM) |
| COc1cc(/C=C/C(=O)c2ccc(N3CCCC3)cc2)cc(OC)c1 | 8.43 µg/mL (≈ 25 µM) |
| COc1ccc(/C=C/C(=O)c2ccc(N3CCCC3)cc2)cc1 | 6.3 µg/mL (≈ 20.5 µM) |
| COc1ccc(/C=C/C(=O)c2ccc(-n3cncn3)cc2)cc1 | 4.56 µg/mL (≈ 14.9 µM) |
| COc1ccc(/C=C/C(=O)c2ccc(-n3cccc3)cc2)cc1 | 1.61 µg/mL (≈ 5.31 µM) |
| COc1cc(/C=C/C(=O)c2ccc(N3CCNCC3)cc2)cc(OC)c1OC | 9 µg/mL (≈ 23.5 µM) |

More lines, now with the values ahead:

| IC50 | SMILES |
| --- | --- |
| 7.9 µg/mL (≈ 24.4 µM) | COc1ccc(/C=C/C(=O)c2ccc(N3CCOCC3)cc2)cc1 |
| 3.13 µg/mL (≈ 8.91 µM) | COc1ccc(/C=C/C(=O)c2ccc(N3CCCCC3)cc2)cc1OC |
| 17 µg/mL (≈ 45 µM) | O=C(/C=C/c1cc2ccccc2nc1Cl)c1ccc(N2CCOCC2)cc1 |
| 2.03 µg/mL (≈ 5.59 µM) | COc1cc(/C=C/C(=O)c2ccc(-n3cccc3)cc2)cc(OC)c1OC |
